Measured values as given in ChEMBL document CHEMBL1201862, “PubChem BioAssay data set” (2004).
Counter-ions that a name gives are not always drawn. Activity calls are given as the source filed them.

Columns and labels:
Protein skinhead-1 = target: T1, Protein skinhead-1 (Caenorhabditis elegans, UniProt P34707); assay type: functional
T1 sequence (P34707 whole entry): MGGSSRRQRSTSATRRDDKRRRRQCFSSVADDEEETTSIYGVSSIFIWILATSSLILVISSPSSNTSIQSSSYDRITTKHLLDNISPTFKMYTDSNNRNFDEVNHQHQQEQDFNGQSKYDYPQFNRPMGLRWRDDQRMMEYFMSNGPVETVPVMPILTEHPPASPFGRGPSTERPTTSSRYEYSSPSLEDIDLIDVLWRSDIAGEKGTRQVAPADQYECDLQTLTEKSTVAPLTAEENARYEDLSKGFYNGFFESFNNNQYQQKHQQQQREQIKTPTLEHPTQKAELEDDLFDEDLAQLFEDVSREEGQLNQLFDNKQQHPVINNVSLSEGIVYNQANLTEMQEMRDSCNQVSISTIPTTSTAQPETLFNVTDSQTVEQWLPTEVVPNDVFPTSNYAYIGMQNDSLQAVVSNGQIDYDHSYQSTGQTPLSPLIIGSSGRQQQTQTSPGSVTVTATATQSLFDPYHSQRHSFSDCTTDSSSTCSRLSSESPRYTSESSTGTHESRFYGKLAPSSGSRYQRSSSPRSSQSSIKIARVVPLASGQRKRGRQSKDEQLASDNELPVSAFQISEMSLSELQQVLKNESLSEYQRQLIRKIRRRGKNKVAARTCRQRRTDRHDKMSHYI

[1] = target: T2, DNA repair protein RAD52 homolog (Homo sapiens, UniProt P43351); assay type: functional, biochemical
T2 sequence (P43351 whole entry): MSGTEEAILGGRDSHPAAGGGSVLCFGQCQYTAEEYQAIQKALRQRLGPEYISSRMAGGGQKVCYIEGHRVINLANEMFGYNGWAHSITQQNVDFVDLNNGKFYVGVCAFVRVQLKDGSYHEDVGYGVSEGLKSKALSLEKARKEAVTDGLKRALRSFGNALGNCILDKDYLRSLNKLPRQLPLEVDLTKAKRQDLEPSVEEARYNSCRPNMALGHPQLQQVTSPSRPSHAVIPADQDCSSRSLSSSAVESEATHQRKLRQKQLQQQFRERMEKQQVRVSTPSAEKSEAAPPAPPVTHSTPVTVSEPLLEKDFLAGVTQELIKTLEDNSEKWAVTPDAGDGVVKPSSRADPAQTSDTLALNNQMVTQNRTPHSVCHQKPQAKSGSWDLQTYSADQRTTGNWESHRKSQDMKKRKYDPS

[2] = target: T3, Rac GTPase-activating protein 1 (Homo sapiens, UniProt Q9H0H5); test: blockers of MgcRacGAP-driven Rac1 GTP hydrolysis – biochemical, ADP Hunter fluorescence, primary and confirmatory, confirmation (AID 624330); assay type: functional
T3 sequence (Q9H0H5 whole entry): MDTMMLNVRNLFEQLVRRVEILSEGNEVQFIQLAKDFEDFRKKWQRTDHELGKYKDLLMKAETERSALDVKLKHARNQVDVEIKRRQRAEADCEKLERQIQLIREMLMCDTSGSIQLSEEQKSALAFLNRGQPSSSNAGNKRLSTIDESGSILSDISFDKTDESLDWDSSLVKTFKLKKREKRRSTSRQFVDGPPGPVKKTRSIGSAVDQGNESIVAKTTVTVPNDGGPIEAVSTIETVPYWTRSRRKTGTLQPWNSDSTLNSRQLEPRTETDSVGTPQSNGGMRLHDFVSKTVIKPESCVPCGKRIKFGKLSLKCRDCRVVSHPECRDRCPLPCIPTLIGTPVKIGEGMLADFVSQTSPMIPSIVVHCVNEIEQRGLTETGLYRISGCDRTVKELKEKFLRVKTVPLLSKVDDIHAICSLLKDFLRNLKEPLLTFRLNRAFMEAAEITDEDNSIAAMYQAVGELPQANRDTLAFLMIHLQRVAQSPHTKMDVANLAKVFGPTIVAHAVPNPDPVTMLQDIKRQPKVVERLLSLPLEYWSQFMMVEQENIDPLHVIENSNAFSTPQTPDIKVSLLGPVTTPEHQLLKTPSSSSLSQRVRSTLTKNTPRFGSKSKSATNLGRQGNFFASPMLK

[3] = fluconazole-exposed Candida albicans growth modulators – fluorescence, retest, confirmation (AID 2467); assay type: functional, cell-based
[4] = NIH-3T3 fibroblast cytotoxicity, dose response, cytotoxicity control, cell-based, fluorescence, Alamar Blue, secondary assay (AID 2327); assay type: functional;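 note: NIH-3T3 mouse fibroblasts cultured with fluconazole at 8 µg/mL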
cells = assay type: functional
[5] = target: T4, Corticotropin-releasing factor receptor 2/Corticotropin-releasing factor-binding protein (Homo sapiens, UniProt P24387+Q13324); test: Dose Response confirmation of uHTS hits for small molecule antagonists of the CRF-binding protein and CRF-R2 receptor complex.; assay type: functional; settings: read-out: IC50_Mean
T4 sequence (Q13324 whole entry): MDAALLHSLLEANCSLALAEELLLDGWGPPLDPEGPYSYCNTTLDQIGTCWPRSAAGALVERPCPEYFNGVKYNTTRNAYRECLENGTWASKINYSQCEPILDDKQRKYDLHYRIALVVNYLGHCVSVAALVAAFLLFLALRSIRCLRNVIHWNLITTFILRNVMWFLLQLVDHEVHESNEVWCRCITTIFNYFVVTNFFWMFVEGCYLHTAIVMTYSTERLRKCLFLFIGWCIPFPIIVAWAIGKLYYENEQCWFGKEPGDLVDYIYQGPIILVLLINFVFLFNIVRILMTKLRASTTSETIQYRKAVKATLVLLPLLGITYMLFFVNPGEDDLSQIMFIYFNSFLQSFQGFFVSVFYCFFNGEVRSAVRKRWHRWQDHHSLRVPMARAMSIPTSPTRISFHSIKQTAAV
T4 sequence (P24387 whole entry): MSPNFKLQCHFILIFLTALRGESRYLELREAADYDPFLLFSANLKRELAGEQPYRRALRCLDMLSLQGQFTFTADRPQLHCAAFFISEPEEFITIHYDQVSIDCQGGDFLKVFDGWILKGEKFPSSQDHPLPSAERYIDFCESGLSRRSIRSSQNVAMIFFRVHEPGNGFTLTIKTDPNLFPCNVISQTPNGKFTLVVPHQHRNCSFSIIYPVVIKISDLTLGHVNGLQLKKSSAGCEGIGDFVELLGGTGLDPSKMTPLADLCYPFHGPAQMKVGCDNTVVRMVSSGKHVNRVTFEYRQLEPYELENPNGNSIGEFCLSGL

Vero = test: cells; assay type: functional; settings: Chlorocebus sabaeus
[6] = target: T4, Corticotropin-releasing factor receptor 2/Corticotropin-releasing factor-binding protein; test: activators of CRF receptor 2 with binding protein – uHTS hits, confirmation (AID 602473); assay type: functional; settings: read-out: EC50_Mean
[7] = HIV-1 AD8 envelope cell-cell fusion blockers – cherry-pick, dose response (AID 652062); assay type: functional, cell-based;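 note: luciferase signal from cell-cell fusion driven by HIV-1 clade B AD8 Env; potency is for inhibitors of fusion seen as a drop in luminescence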
[8] = OVCAR8 cell viability loss – plate reader, dry powder samples, PAX8 project, dose response (AID 743197); assay type: functional, cell-based; settings: OVCAR-8
Paired box protein Pax-8 = Paired box protein Pax-8 (Homo sapiens, UniProt Q06710); test: PAX8 transcriptional activity inhibition in RMG-I – RMG-I cells, luciferase, cherry-pick, dose response (AID 687027); assay type: functional, cell-based;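 note: luciferase reporter driven by Pax8 target thyroperoxidase promoter measured by SteadyGlo luminescence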
[9] = blockers of HIV-1 envelope-mediated cell-cell fusion – cherry-pick, dose response (AID 652057); assay type: functional, cell-based
[10] = OVCAR-3 cell viability loss – plate reader, dry powder samples, PAX8 inhibitor project, dose response (AID 743044); assay type: functional, cell-based
Streptococcus = test: GAS UMAA2166 growth inhibition – luminescence, BacTiterGlo, counter-screen for streptokinase expression inhibitor project, dose response (AID 1915); assay type: functional, organism-based;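 note: potency for reduction of bacterial viability or growth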
[11] = test system: Streptococcus sp. 'group A'; test: Streptococcus pyogenes SK(-)GAS viability under kanamycin – luminescence, BacTiterGlo, confirmation, counter-screen for streptokinase expression inhibitor project, dose response (AID 1900); assay type: functional, organism-based
Streptokinase A = target: T5, Streptokinase A (Streptococcus pyogenes serotype M1, UniProt P10520); test: viability-normalized secreted streptokinase activity reduction – plasminogen activation absorbance, OD405, dose response (AID 1914); assay type: functional, Streptococcus pyogenes M1 GAS;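 note: secreted streptokinase activity via plasminogen activation per viability signal from cell pellet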
T5 sequence (P10520 whole entry): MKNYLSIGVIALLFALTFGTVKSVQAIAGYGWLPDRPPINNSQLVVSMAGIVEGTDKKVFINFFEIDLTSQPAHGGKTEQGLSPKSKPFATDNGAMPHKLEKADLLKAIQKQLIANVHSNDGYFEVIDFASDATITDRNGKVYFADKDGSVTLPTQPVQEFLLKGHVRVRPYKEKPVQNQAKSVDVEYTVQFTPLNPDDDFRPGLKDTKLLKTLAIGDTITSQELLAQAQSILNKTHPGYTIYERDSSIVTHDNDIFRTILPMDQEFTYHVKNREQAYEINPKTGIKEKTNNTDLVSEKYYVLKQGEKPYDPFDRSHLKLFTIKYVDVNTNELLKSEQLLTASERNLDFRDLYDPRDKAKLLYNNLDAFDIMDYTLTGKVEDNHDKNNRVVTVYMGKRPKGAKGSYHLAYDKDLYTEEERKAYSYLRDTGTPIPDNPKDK

Paired box protein Pax-8, sequence (Q06710 whole entry, the tested form may be a part): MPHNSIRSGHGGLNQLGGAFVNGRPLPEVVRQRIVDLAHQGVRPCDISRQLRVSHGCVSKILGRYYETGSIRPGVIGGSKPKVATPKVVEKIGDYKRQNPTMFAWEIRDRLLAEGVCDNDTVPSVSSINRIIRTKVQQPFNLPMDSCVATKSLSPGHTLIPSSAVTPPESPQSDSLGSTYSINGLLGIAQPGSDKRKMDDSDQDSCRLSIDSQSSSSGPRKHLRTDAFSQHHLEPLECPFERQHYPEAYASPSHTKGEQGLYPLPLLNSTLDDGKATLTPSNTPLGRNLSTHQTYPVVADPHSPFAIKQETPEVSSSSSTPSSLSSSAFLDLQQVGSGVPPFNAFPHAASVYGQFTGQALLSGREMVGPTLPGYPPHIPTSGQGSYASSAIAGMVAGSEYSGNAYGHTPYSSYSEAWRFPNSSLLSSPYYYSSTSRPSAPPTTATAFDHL

In the case of `Fc1cc(Cl)cc2ccc(-c3ccccc3)nc12`, the IC50 (Protein skinhead-1) is reported as 45.2 µM (active).

With `CN/C(=C\[N+](=O)[O-])NCCSCc1ccc(CN(C)C)o1` [RANITIDINE HYDROCHLORIDE] the AC50 [1] was 11.8 µM (active).

With `CC[N+](CC)(CC)CCCCOc1ccc2c(c1)C(=O)c1cc(OCCCC[N+](CC)(CC)CC)ccc1-2` the IC50 [2] was 221 µM (active) and the AC50 [1] was 0.506 µM (active).

In the case of `Cn1ccs/c1=N\C(=O)c1ccc(OC(F)(F)F)cc1`, the IC50 (Protein skinhead-1) is reported as 29.8 µM (active).

In the case of `Cc1ccsc1C(=O)OCC(=O)Nc1nnc(-c2ccccc2)o1`, the EC50 [3] is reported as 3.98 µM (active), the EC50 [4] is reported as > 160 µM (inactive) and the IC50 (cells) is reported as 15.1 µM (active).

For `Cc1ccc(/C=N/NC(=S)Nc2cccc(S(=O)(=O)N(C)C)c2)o1`, the IC50 [5] was > 47.1 µM (inactive), the CC50 (Vero) was > 25 µM (active) and the EC50 [6] was > 53 µM (inactive).

For `Fc1ccc(-c2cnc(-c3cccs3)o2)cc1`, the IC50 (Protein skinhead-1) was 24 µM (active).

In the case of `COC(=O)CN1C(=S)N(c2ccc(OC)cc2)C(=O)/C1=C/c1ccc(N2CCOCC2)cc1`, the IC50 (Protein skinhead-1) is reported as > 100 µM (inactive).

For `CC(C)CC#Cc1ccc2c(c1)O[C@@H](CN(C)S(=O)(=O)c1ccc(F)cc1)[C@H](C)CN([C@@H](C)CO)S2(=O)=O`, the AC50 [7] was 44.9 µM (active), the AC50 [8] was 61 µM (active) and the AC50 (Paired box protein Pax-8) was 9.45 µM (active). The AC50 [9] was 30.8 µM (active).

In the case of `Cc1ccc(OC(=O)N(C)C[C@@H]2OCc3ccccc3-c3c(n(C)c4ccccc34)C(=O)N([C@@H](C)CO)C[C@H]2C)cc1`, the AC50 [8] is reported as > 70 µM (inactive), the AC50 [10] is reported as 39.9 µM (active) and the AC50 (Paired box protein Pax-8) is reported as 4.78 µM (active).

In the case of `CN1CCN(C2Cc3ccc(Cl)cc3Sc3ccc(F)cc32)CC1` (stereo not given), the EC50 (Streptococcus) is reported as 11.9 µM (active), the EC50 [11] is reported as 4.95 µM (active) and the AC50 [1] is reported as 14.1 µM (active). The EC50 (Streptokinase A) was > 150 µM (not active).

In the case of `Cc1cc(N2CCN(C)CC2)nc2ccc(NC(=S)N3CCCCC3)cc12`, the AC50 [1] is reported as 10.9 µM (active).
